This note sets out measurements from patent publication US20250161297A1, “COMPOSITIONS AND METHODS FOR INHIBITING FSP1” (THE REGENTS OF THE UNIVERSITY OF CALIFORNIA, priority 2022, published 2025).

The assay addresses T1, recombinant purified FSP1 (Homo sapiens, UniProt Q9BRQ8).
T1 construct: made in house; host or cells: E. coli LOBSTR-BL21 (DE3)
T1 sequence (Q9BRQ8 1-373): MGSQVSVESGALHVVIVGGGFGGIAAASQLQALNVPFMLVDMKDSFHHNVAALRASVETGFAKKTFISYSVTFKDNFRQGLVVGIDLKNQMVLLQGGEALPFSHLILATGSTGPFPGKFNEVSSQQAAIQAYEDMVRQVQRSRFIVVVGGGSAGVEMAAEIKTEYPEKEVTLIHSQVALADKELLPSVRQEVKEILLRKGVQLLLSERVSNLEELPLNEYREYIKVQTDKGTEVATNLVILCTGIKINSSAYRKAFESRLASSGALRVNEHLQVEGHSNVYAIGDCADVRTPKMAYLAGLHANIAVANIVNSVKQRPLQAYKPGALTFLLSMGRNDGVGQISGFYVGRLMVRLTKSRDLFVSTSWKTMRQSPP
Description: FSP1 enzyme kinetics with NADH, CoQ-coumarin and CoQ1. The format is biochemical. The protocol: FSP1 Kinetics (NADH): To measure FSP1 kinetics, FSEN1 was dissolved and diluted in DMSO, and recombinant purified FSP1 was diluted in PBS. 0.5 μL FSEN1 and 12.5 μL FSP1 were mixed and incubated for 30 minutes in a NBS polystyrene 384-well plate (Corning Ref: 3640) at RT. Vehicle control wells included 0.5 μL DMSO and were absent of any FSEN1. NADH (Millipore Cat: 481913) was then dissolved and diluted in PBS and added to the plate wells. CoQ-Coumarin (Cayman Item: 29554) was dissolved in DMSO, diluted in PBS, and added to the plate wells to start the reaction. Final well volume was 25 μL, and final concentrations were 25 nM FSP1, 10UM CoQ-Coumarin, 1-50 μM NADH, and 50-500 nM FSEN1. […] Reduced CoQ-Coumarin fluorescence (Ex: 405 nm, Em: 475 nm) was measured as read-out of enzymatic product formation on a kinetic cycle with an interval time of 20 seconds at RT. […] Raw data from 3 biological replicates were then plotted and initial slopes were calculated using a linear regression in prism (GraphPad).
FSP1 Kinetics (CoQ-Coumarin): To measure FSP1 kinetics, FSEN1 was dissolved and diluted in DMSO, and recombinant purified FSP1 was diluted in PBS. […] Reduced CoQ-Coumarin fluorescence (Ex: 405 nm, Em: 475 nm) was measured as read-out of enzymatic product formation on a kinetic cycle with an interval time of 15 seconds at RT. […]

The structures appear in SMILES notation.

With `COc1ccc(N2CCN(Cc3cn4c(-c5ccc(Br)cc5)nnc4s3)CC2)cc1` [FSEN1], the “change in Kcat” value (as FSEN1 concentrations increased) is on record as “decrease in Kcat values”. Besides, the “mechanism of FSP1 inhibition” value (increasing NADH and CoQ-coumarin, Lineweaver-Burke plots parallel) is recorded as “uncompetitive inhibitor”.
